What all share (assay type): biochemical
Test [1] has as its target PKC delta kinase (Homo sapiens, UniProt Q05655). Briefly: PKC Delta coupled-enzyme kinase assay (NADH consumption, absorbance at 340 nm). The note with it: 46 nM PKC delta kinase, ATP final assay concentration of 150, 150 μM substrate peptide, 30° C. On the procedure: An assay buffer solution was prepared which consisted of 100 mM HEPES (pH 7.5), 10 mM MgCl2, 25 mM NaCl, 0.1 mM EDTA and 0.01% Brij. An enzyme buffer containing reagents to final assay concentrations of 0.002% Triton X-100, 200 μg/mL Phosphatidylserine, 20 μg/mL Diacylglycerol; 360 μM NADH, 3 mM phosphoenolpyruvate, 70 μg/mL pyruvate kinase, 24 μg/mL lactate dehydrogenase, 2 mM DTT, 150 μM substrate peptide (ERMRPRKRQGSVRRRV SEQ ID NO. 2) and 46 nM PKC delta kinase was prepared in assay buffer. To 16 μL of this enzyme buffer, in a 384 well plate, was added 1 μL of VRT stock solution in DMSO. The mixture was allowed to equilibrate for 10 mins at 30° C. The enzyme reaction was initiated by the addition of 16 μL stock ATP solution prepared in assay buffer to a final assay concentration of 150 Initial rate data was determined from the rate of change of absorbance at 340 nm (corresponding to stoichiometric consumption of NADH) using a Molecular Devices Spectramax plate reader (Sunnyvale, Calif.) over 15 mins at 30° C. For each Ki determination 12 data points covering the VRT concentration range of 0-20 μM were obtained in duplicate (DMSO stocks were prepared from an initial 10 mM VRT stock with subsequent 1:2 serial dilutions). Ki values were calculated from initial rate data by non-linear regression using the Prism software package (Prism 4.0a, Graphpad Software, San Diego, Calif.).

Test [2] deals with PKC theta kinase (Homo sapiens, UniProt Q04759). Briefly: PKC Theta coupled-enzyme kinase assay (NADH consumption, absorbance at 340 nm). The note with it: 18 nM PKC theta kinase, 240 μM ATP, 100 μM substrate peptide, 30° C. As for the experimental part: An assay buffer solution was prepared which consisted of 100 mM HEPES (pH 7.5), 10 mM MgCl2, 25 mM NaCl, 0.1 mM EDTA and 0.01% Brij. An enzyme buffer containing reagents to final assay concentrations of 0.00001% Triton X-100, 200 μg/mL Phosphatidylserine, 20 μg/mL Diacylglycerol, 360 μM NADH, 3 mM phosphoenolpyruvate, 70 μg/mL pyruvate kinase, 24 μg/mL lactate dehydrogenase, 2 mM DTT, 100 μM substrate peptide (ERMRPRKRQGSVRRRV SEQ ID NO. 1) and 18 nM PKC theta kinase was prepared in assay buffer. To 60 μL of this enzyme buffer, in a 384 well plate, was added 2 μL of VRT stock solution in DMSO. The mixture was allowed to equilibrate for 10 mins at 30° C. The enzyme reaction was initiated by the addition of 5 μL stock ATP solution prepared in assay buffer to a final assay concentration of 240 μM. Initial rate data was determined from the rate of change of absorbance at 340 nm (corresponding to stoichiometric consumption of NADH) using a Molecular Devices Spectramax plate reader (Sunnyvale, Calif.) over 15 mins at 30° C. For each Ki determination 12 data points covering the VRT concentration range of 0-20 μM were obtained in duplicate (DMSO stocks were prepared from an initial 10 mM VRT stock with subsequent 1:2 serial dilutions). Ki values were calculated from initial rate data by non-linear regression using the Prism software package (Prism 4.0a, Graphpad Software, San Diego, Calif.). […] 1.25 D>2.8 μM.

Test [3] has as its target PKC alpha kinase (Homo sapiens, UniProt P17252). The test is described as follows: PKC Alpha coupled-enzyme kinase assay (NADH consumption, absorbance at 340 nm). The note with it: 4.5 nM PKC alpha kinase, 130 μM ATP, 150 μM substrate peptide, 100 μM CaCl2, 30° C. As for the experimental part:
An assay buffer solution was prepared which consisted of 100 mM HEPES (pH 7.5), 10 mM MgCl2, 25 mM NaCl, 0.1 mM EDTA, 100 μM CaCl2 and 0.01% Brij. An enzyme buffer containing reagents to final assay concentrations of 0.002% Triton X-100, 100 μg/mL Phosphatidylserine, 20 μg/mL Diacylglycerol, 360 μM NADH, 3 mM phosphoenolpyruvate, 70 μg/mL pyruvate kinase, 24 μg/mL lactate dehydrogenase, 2 mM DTT, 150 μM substrate peptide (RRRRRKGSFKRKA SEQ ID NO. 3) and 4.5 nM PKC alpha kinase was prepared in assay buffer. To 16 μL of this enzyme buffer, in a 384 well plate, was added 1 μL of VRT stock solution in DMSO. The mixture was allowed to equilibrate for 10 mins at 30° C. The enzyme reaction was initiated by the addition of 16 μL stock ATP solution prepared in assay buffer to a final assay concentration of 130 μM. Initial rate data was determined from the rate of change of absorbance at 340 nm (corresponding to stoichiometric consumption of NADH) using a Molecular Devices Spectramax plate reader (Sunnyvale, Calif.) over 15 mins at 30° C. For each Ki determination 12 data points covering the VRT concentration range of 0-20 μM were obtained in duplicate (DMSO stocks were prepared from an initial 10 mM VRT stock with subsequent 1:2 serial dilutions). Ki values were calculated from initial rate data by non-linear regression using the Prism software package (Prism 4.0a, Graphpad Software, San Diego, Calif.).

Sequence of PKC theta kinase (Q04759 whole entry): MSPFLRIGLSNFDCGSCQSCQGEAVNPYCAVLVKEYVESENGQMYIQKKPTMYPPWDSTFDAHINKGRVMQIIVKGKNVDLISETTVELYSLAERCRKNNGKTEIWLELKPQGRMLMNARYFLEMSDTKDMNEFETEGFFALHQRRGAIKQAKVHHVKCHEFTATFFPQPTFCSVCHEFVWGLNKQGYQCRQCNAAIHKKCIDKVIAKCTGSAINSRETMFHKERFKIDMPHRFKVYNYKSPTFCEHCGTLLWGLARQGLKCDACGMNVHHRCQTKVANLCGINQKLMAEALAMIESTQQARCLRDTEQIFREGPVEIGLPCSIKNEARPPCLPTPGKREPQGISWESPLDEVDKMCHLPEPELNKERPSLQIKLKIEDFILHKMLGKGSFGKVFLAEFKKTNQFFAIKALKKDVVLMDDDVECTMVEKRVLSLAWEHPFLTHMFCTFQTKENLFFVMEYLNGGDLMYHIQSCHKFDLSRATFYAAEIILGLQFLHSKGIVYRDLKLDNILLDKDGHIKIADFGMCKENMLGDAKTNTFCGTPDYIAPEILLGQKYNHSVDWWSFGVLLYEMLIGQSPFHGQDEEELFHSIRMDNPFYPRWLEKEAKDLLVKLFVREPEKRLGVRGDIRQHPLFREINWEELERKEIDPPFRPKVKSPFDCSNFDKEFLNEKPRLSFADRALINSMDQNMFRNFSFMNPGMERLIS
Sequence of PKC delta kinase (Q05655 whole entry): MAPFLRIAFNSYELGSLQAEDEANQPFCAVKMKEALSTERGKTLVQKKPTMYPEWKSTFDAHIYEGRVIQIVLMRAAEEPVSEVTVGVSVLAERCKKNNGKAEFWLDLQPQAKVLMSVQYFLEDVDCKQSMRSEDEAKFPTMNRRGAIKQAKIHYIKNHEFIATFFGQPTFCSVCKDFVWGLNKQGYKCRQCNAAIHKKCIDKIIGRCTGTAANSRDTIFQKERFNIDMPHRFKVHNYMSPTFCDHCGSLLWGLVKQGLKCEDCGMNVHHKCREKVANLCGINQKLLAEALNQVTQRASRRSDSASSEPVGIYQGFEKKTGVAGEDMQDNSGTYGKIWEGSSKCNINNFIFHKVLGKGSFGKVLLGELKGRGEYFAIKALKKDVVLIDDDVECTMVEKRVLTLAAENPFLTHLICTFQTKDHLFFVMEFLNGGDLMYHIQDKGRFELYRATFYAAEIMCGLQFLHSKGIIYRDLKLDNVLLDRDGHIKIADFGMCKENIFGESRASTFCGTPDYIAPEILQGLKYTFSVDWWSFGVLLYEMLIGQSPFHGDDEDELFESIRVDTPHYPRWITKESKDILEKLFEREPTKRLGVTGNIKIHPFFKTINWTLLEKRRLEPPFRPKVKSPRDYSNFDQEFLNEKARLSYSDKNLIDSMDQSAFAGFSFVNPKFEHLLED

As a reminder, the Ki is the equilibrium dissociation constant of an inhibitor or competing ligand from its target. High values mean a looser hold on the target, low ones a stronger hold on the target. With `N#CC1(c2cccc(-c3ncnc4[nH]ncc34)c2)CC1` [Compound 3, 1-(3-(1H-pyrazolo[3,4-d]pyrimidin-4-yl)phenyl)cyclopropane carbonitrile], the Ki in test [1] was 500 to 2800 nM; in test [2], less than 50 nM; in test [3] it was greater than 1250 nM.
For the compound `Cc1n[nH]c2ncnc(-c3cccc(C4(C#N)CC4)c3)c12` [Compound 4], the Ki was greater than 1250 nM in test [1], less than 50 nM in test [2] and greater than 1250 nM in test [3].
Consider `Cc1n[nH]c2ncnc(-c3cccc(C4(CN)CC4)c3)c12` [Compound 6], for which the Ki in test [1] is 500 to 2800 nM; in test [2], 50 to 500 nM; in test [3], greater than 1250 nM.
As to `CCc1n[nH]c2ncnc(-c3cc(F)cc(C4(CN)CCC4)c3)c12` [Compound 8, (1-(3-(3-ethyl-1H-pyrazolo[3,4-d]pyrimidin-4-yl)-5-fluorophenyl)cyclobutyl)methanamine], the Ki was 50 to 500 nM in test [1], less than 50 nM in test [2] and 50 to 500 nM in test [3].
Consider `CCc1n[nH]c2ncnc(-c3cccc(C4(C#N)CC4)c3)c12` [Compound 2], for which the Ki is less than 50 nM in test [2] and greater than 1250 nM in test [3].
With `CCc1n[nH]c2ncnc(-c3cccc(C4(CN)CC4)c3)c12` [Compound 5, (1-(3-(3-ethyl-1H-pyrazolo[3,4-d]pyrimidin-4-yl)phenyl)cyclopropyl)methanamine], the figures for the Ki in test [1], in test [2] and in test [3] were 50 to 500 nM, less than 50 nM and 500 to 2800 nM, respectively.
Consider `NC(=O)C1(c2cccc(-c3ncnc4[nH]nc(C(F)(F)F)c34)c2)CC1` [Compound 7, 1-(3-(3-(trifluoromethyl)-1H-pyrazolo[3,4-d]pyrimidin-4-yl)phenyl)cyclopropanecarboxamide], for which the Ki in test [1] was greater than 1250 nM; in test [2], greater than 700 nM; in test [3], greater than 1250 nM.
`N#CC1(c2cccc(-c3ncnc4[nH]nc(C5CC5)c34)c2)CC1` [Compound 1, 1-(3-(3-cyclopropyl-1H-pyrazolo[3,4-d]pyrimidin-4-yl)phenyl)cyclopropanecarbonitrile]: the Ki in test [1] is greater than 1250 nM; in test [2], 50 to 500 nM; in test [3], greater than 1250 nM.

Source of the values: patent US20120172379A1, “4 SUBSTITUTED PYRAZOLOPYRIMIDINES” (VERTEX PHARMACEUTICALS INCORPORATED, priority 2009, published 2012).
